Test results published in article PMC10266688 (PLOS ONE, 2023).
Where “and” joins values, the source holds several entries; their conditions need not be identical. Equal values may be shown once.

Legend:
[1] = test system: TC1-OVA cells; test: Antigen presentation (H-2Kb/[…]) by TC1-OVA cells, flow cytometry; format: cell-based, mouse; settings: 0.25 μM, 12 h
Description: TC1 cells stably expressing Ovalbumin (TC1-OVA) were plated (125,000 cells/well) in a 6 well plate in 2 mL RPMI complete medium.
C) TC1-OVA cells were plated (125,000 cells/well) in a 6 well plate in 2 mL/well in complete medium.

[2] = test system: TOV21G and ES2 cells; test: Annexin V apoptosis assay; settings: 12 h
[3] = Single administration dose escalation study (MTD, body weight, clinical observations), female CD1 mice; format: in vivo; settings: for Body weight change, Mean / Body weight change: day 7 vs initial weight; for Body weight change, Mean: group mean
Description: Mice were dosed on day 1 and clinical condition recorded at 0.5 h, 2 h, 4 h, 6 h, and days 1–7 (S6 Table).
Gc - general condition observation
X - treatment with compound or vehicle

For `N#Cc1ccc(/C=C2/C(=O)/C(=C/c3ccc(C#N)cc3)C23CCNCC3)cc1` [Up284], the “MHC class I antigen presentation (SIINFEKL on H-2Kb)” value [1] was “enhanced MHC class I antigen presentation”, the “apoptosis, Up284 in combination with cisplatin” value [2] was “no indication of synergy” and the “Body weight, Mean” value ([3]; IP 40 mg/kg single dose, day 0, group mean) was 24.20 g. The Body weight ([3]; IP 40 mg/kg single dose, day 0, individual mice, 40 mg/kg) was 25.6 g and 24.3 g and 22.7 g, the “Body weight, Mean” value ([3]; IP 40 mg/kg single dose, day 1, group mean) was 22.83 g and the Body weight ([3]; IP 40 mg/kg single dose, day 1, individual mice, 40 mg/kg) was 23.9 g and 22.7 g and 21.9 g. The “Body weight, Mean” value ([3]; IP 40 mg/kg single dose, day 2, group mean) was 22.97 g, the Body weight ([3]; IP 40 mg/kg single dose, day 2, individual mice, 40 mg/kg) was 23.3 g and 22.3 g and the “Body weight, Mean” value ([3]; IP 40 mg/kg single dose, day 3, group mean) was 23.80 g. For the same compound, the Body weight ([3]; IP 40 mg/kg single dose, day 3, individual mice, 40 mg/kg) was 24.2 g and 24.5 g and 22.7 g, the “Body weight, Mean” value ([3]; IP 40 mg/kg single dose, day 4, group mean) was 23.87 g and the Body weight ([3]; IP 40 mg/kg single dose, day 4, individual mice, 40 mg/kg) was 24.5 g and 24.6 g and 22.5 g. The “Body weight, Mean” value ([3]; IP 40 mg/kg single dose, day 5, group mean) was 24.43 g, the Body weight ([3]; IP 40 mg/kg single dose, day 5, individual mice, 40 mg/kg) was 25.0 g and 25.1 g and 23.2 g and the “Body weight, Mean” value ([3]; IP 40 mg/kg single dose, day 6, group mean) was 24.13 g. The Body weight ([3]; IP 40 mg/kg single dose, day 6, individual mice, 40 mg/kg) was 25.3 g and 24.6 g and 22.5 g, the “Body weight, Mean” value ([3]; IP 40 mg/kg single dose, day 7, group mean) was 24.83 g and the Body weight ([3]; IP 40 mg/kg single dose, day 7, individual mice, 40 mg/kg) was 26.2 g and 24.5 g and 23.8 g. The “Body weight change, Mean” value ([3]; IP 40 mg/kg single dose) was 2.67%, the Body weight change ([3]; IP 40 mg/kg single dose, individual mice, 40 mg/kg) was 2.34% and 0.82% and 4.85% and the Clinical observation ([3]; IP 40 mg/kg, day 0, 0.5 h, individual mice) was “DPEh”. For the same compound, the Clinical observation ([3]; IP 40 mg/kg, day 0, 2 h, individual mice) was “HDPEh”, the Clinical observation ([3]; IP 40 mg/kg, day 0, 4 h, individual mice) was “HDPEh” and the Clinical observation ([3]; IP 40 mg/kg, day 0, 6 h, individual mice) was “DPEh”. For the same compound, the Clinical observation ([3]; IP 40 mg/kg, day 0, time 0, individual mice) was 0, the Clinical observation ([3]; IP 40 mg/kg, day 1, individual mice, 40 mg/kg) was 0 and the Clinical observation ([3]; IP 40 mg/kg, day 2, individual mice) was 0. The Clinical observation ([3]; IP 40 mg/kg, day 3, individual mice) was 0, the Clinical observation ([3]; IP 40 mg/kg, day 4, individual mice) was 0 and the Clinical observation ([3]; IP 40 mg/kg, day 5, individual mice) was 0. The Clinical observation ([3]; IP 40 mg/kg, day 6, individual mice) was 0, the Clinical observation ([3]; IP 40 mg/kg, day 7, individual mice) was 0 and the “Body weight, Mean” value ([3]; IP 60 mg/kg single dose, day 0, group mean) was 24.00 g. For the same compound, the Body weight ([3]; IP 60 mg/kg single dose, day 0, individual mice, 60 mg/kg) was 24.4 g and 25.1 g and 22.5 g, the Body weight ([3]; IP 60 mg/kg single dose, day 1, individual mice) was “died” and the “Body weight change, Mean” value ([3]; IP 60 mg/kg single dose) was -100.00%. The Clinical observation ([3]; IP 60 mg/kg, day 0, 0.5 h, individual mice) was “DPEh”, the Clinical observation ([3]; IP 60 mg/kg, day 0, 2 h, individual mice) was “HDPEh” and the Clinical observation ([3]; IP 60 mg/kg, day 0, 4 h, individual mice) was “HDPEh”. The Clinical observation ([3]; IP 60 mg/kg, day 0, 6 h, individual mice) was “DPEh”, the Clinical observation ([3]; IP 60 mg/kg, day 0, time 0, individual mice) was 0 and the Clinical observation ([3]; IP 60 mg/kg, day 1, individual mice) was “died”. The “Body weight, Mean” value ([3]; IV 40 mg/kg single dose, day 0, group mean) was 24.50 g, the Body weight ([3]; IV 40 mg/kg single dose, day 0, individual mice, 40 mg/kg) was 26.2 g and 23.2 g and 24.1 g and the “Body weight, Mean” value ([3]; IV 40 mg/kg single dose, day 1, group mean) was 23.90 g. For the same compound, the Body weight ([3]; IV 40 mg/kg single dose, day 1, individual mice, 40 mg/kg) was 25.5 g and 22.6 g and 23.6 g, the “Body weight, Mean” value ([3]; IV 40 mg/kg single dose, day 2, group mean) was 24.07 g and the Body weight ([3]; IV 40 mg/kg single dose, day 2, individual mice, 40 mg/kg) was 25.7 g and 22.4 g and 24.1 g. For the same compound, the “Body weight, Mean” value ([3]; IV 40 mg/kg single dose, day 3, group mean) was 25.03 g, the Body weight ([3]; IV 40 mg/kg single dose, day 3, individual mice, 40 mg/kg) was 26.5 g and 23.6 g and 25.0 g and the “Body weight, Mean” value ([3]; IV 40 mg/kg single dose, day 4, group mean) was 25.23 g. The Body weight ([3]; IV 40 mg/kg single dose, day 4, individual mice, 40 mg/kg) was 27.7 g and 22.9 g and 25.1 g, the “Body weight, Mean” value ([3]; IV 40 mg/kg single dose, day 5, group mean) was 25.17 g and the Body weight ([3]; IV 40 mg/kg single dose, day 5, individual mice, 40 mg/kg) was 28.0 g and 23.0 g and 24.5 g. For the same compound, the “Body weight, Mean” value ([3]; IV 40 mg/kg single dose, day 6, group mean) was 24.97 g, the Body weight ([3]; IV 40 mg/kg single dose, day 6, individual mice, 40 mg/kg) was 27.2 g and 22.6 g and 25.1 g and the “Body weight, Mean” value ([3]; IV 40 mg/kg single dose, day 7, group mean) was 25.07 g. The Body weight ([3]; IV 40 mg/kg single dose, day 7, individual mice, 40 mg/kg) was 27.2 g and 23.2 g and 24.8 g, the “Body weight change, Mean” value ([3]; IV 40 mg/kg single dose) was 2.24% and the Body weight change ([3]; IV 40 mg/kg single dose, individual mice, 40 mg/kg) was 3.82% and 0.00% and 2.90%. It also gave a Clinical observation ([3]; IV 40 mg/kg, day 0, 2 h, individual mice) of 0, a Clinical observation ([3]; IV 40 mg/kg, day 0, 4 h, individual mice) of 0 and a Clinical observation ([3]; IV 40 mg/kg, day 0, 6 h, individual mice) of 0. It also gave a Clinical observation ([3]; IV 40 mg/kg, day 0, time 0, individual mice) of 0, a Clinical observation ([3]; IV 40 mg/kg, day 1, individual mice) of 0 and a Clinical observation ([3]; IV 40 mg/kg, day 2, individual mice) of 0. The Clinical observation ([3]; IV 40 mg/kg, day 3, individual mice) was 0, the Clinical observation ([3]; IV 40 mg/kg, day 4, individual mice) was 0 and the Clinical observation ([3]; IV 40 mg/kg, day 5, individual mice) was 0. The Clinical observation ([3]; IV 40 mg/kg, day 6, individual mice) was 0, the Clinical observation ([3]; IV 40 mg/kg, day 7, individual mice) was 0 and the “Body weight, Mean” value ([3]; IV 60 mg/kg single dose, day 0, group mean) was 24.43 g. For the same compound, the Body weight ([3]; IV 60 mg/kg single dose, day 0, individual mice, 60 mg/kg) was 26.0 g and 22.7 g and 24.6 g, the “Body weight, Mean” value ([3]; IV 60 mg/kg single dose, day 1, group mean) was 24.47 g and the Body weight ([3]; IV 60 mg/kg single dose, day 1, individual mice, 60 mg/kg) was 26.7 g and 22.6 g and 24.1 g. For the same compound, the “Body weight, Mean” value ([3]; IV 60 mg/kg single dose, day 2, group mean) was 24.77 g, the Body weight ([3]; IV 60 mg/kg single dose, day 2, individual mice, 60 mg/kg) was 27.1 g and 23.4 g and 23.8 g and the “Body weight, Mean” value ([3]; IV 60 mg/kg single dose, day 3, group mean) was 24.73 g.
